According to US8119589B2, “Modulation of CD4+ T cell responses by a tick saliva protein, Salp15 and polypeptides derived therefrom” (University of North Carolina at Charlotte, priority 2004, dated 2012):

Columns and labels:
[1] = tested on: B cells and macrophages; assay: Receptor capping in B cells and macrophages (anti-IgM, anti-CD16/CD32 cross-linking); format: cell-based, mouse; details: 50 μg/mL Salp15; anti-IgM and Fc engagement
Description: For receptor capping studies, mouse primary B and CD11^+ cells were purified by positive selection using biotin anti-mouse CD45R/B220 clone RA3-6B2 and biotin anti-mouse CD11b clone M1/70 (BD Biosciences Pharmingen) respectively, followed by incubation with magnetic microbeads. The cells were analyzed for receptor capping using 25 μg/mL anti-mouse IgM and 25 μg/mL anti-mouse CD16/CD32 respectively, cross-linked with 25 μg/mL of anti-rat IgG594 for 10 min in the presence or absence of 50 μg/mL of Salp15. CD4^+ and CD8^+ T cells were purified by negative selection and incubated with 10 μg/mL anti-CD3 and 1 μg/mL anti-CD28 cross-linked with 10 μg/mL of anti-hamster IgG488 for 10 min in the presence or absence of 50 μg/mL of Salp15.

[2] = molecular target: T1, CD4 on HeLa-CD4 cells (Homo sapiens, UniProt P01730); assay: Competition of Salp15488 binding to HeLa-CD4 cells; details: Salp15 or lysozyme 0.5 mg/mL
T1 construct: host or cells: HeLa
Description: For colocalization experiments, Jurkat and CD4^+ T cells were cytospun as described herein. HeLa and HeLa-CD4 cells were grown on chamber slides. The cells were fixed and stained with anti-CD4 and Salp15 as follows. Purified Salp15 was labeled using Alexa-488 with the Protein Labeling Kit (Molecular Probes) according to the manufacturer's instructions. Fixed cells were blocked with 5% normal serum and anti-CD16/CD32 (1:100) in PBS, incubated with 1 μg of monoclonal biotinylated anti-CD4 (L3T4) (BD Biosciences Pharmingen) followed by streptavidin594 staining. The cells were then stained with 20 μg/mL of Salp15488. For competition assays, cells were first blocked with 5% normal serum, incubated with either polyclonal anti-CD4 antibody, MT310, OKT4, normal rabbit IgG, Salp15 (0.5 mg/mL) or lysozyme (0.5 mg/mL) followed by staining with Salp15488. All samples were mounted in a GVA Mount (Zymed, San Francisco, Calif., U.S.A.) and visualized with an Olympus Confocal microscope equipped with Fluoview 3.0 software.

[3] = tested on: CD4+ T cells; assay: Actin polymerization (phalloidin488 staining, F-actin immunoblot, flow cytometry) in activated CD4+ T cells; format: cell-based, mouse; details: Salp15 pretreatment; effect seen as early as 1 minute of activation
Description: For the visualization of lipid rafts, phospho-tyrosine, and cytoskeleton reorganization, CD4^+, CD8^+ or Jurkat cells were cytospun for 10 minutes at 1000 RPM onto positively charged microslides (Fisher Scientific, Hampton, N.H., U.S.A.). The cells were fixed with 3.7% paraformaldehyde (Sigma Chemical Co.) for 15 minutes and stained with CTB594 (Molecular Probes, Eugene, Oreg., U.S.A.), AlexaFluor488 labeled phalloidin (Molecular Probes) or (1:50) biotin-conjugated anti-p-Tyr (PY99) followed by Streptavidin-AlexaFluor594 (1:100, Molecular Probes). […]
Actin polymerization assay was performed as described earlier (Krishnan et al., 2004). […] The cells were washed, resuspended in PBS and analyzed for F-actin content on a FACSCalibur with CellQuest software (Beckton Dickinson, Mountain View, Calif., U.S.A.). […] The cells were washed twice with PBS and analyzed by flow cytometry.
The amount of F-actin in activated CD4+ T cells in the presence and absence of Salp15 was quantified by ultracentrifugation and Western blotting. […] Equal amounts of total protein were loaded on the SDS-gel based on the total actin determined from a sample of the cell lysate.

Salp15: secreted salivary protein from Ixodes scapularis, SEQ ID NO: 2; recombinant His-tagged, produced in Drosophila S2 cells
Lipid raft reorganization (receptor capping) [1]: did not affect
Competition of Salp15488 binding to HeLa-CD4 cells by preincubation [2]: competed
Phalloidin488 staining / amount of F-actin [3]: reduced
